{
  "source": "paper PMC12152147",
  "about": "“DDB1 engagement defines the selectivity of S656 analogs for cyclin K degradation over CDK inhibition” (EMBO Reports, 2025)",
  "key": {"[1]": {"tested_on": "OCI-AML5 cells expressing shRNA targeting CUL4A or CUL4B", "assay": "Dose response in OCI-AML5 expressing shRNAs targeting CUL4A, CUL4B or control", "format": "cell-based, H. sapiens"}, "[2]": {"tested_on": "OCI-AML5 cells", "assay": "Dose-response proliferative assay in OCI-AML5 (4 days, CellTiterGlo)", "format": "cell-based, H. sapiens", "conditions": "Homo sapiens, OCI-AML-5, OCI-AML5 cells; read-out: IC50 in AML5", "in_short": "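Viability assessed after 4 days of compound exposure at 37 °C, 5% CO2. Compounds tested as 8 dilutions (1:4, 10 μM to 0.5 nM) on 300 OCI-AML5 cells/well grown in αMEM with 10% heat-inactivated FBS and 10 ng/mL GM-CSF.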"}, "[3]": {"tested_on": "primary AML specimens", "assay": "Dose-response assays in primary AML specimens (6 days, CellTiterGlo)", "format": "cell-based, human", "conditions": "Homo sapiens, 144 h, 6 days, read-out: IC50", "procedure": "Freshly thawed primary AML specimens were used for chemical screens. Cryopreserved cells were thawed at 37 °C in IMDM containing 20% FBS and DNase I (100 μg/mL). Cells were resuspended in IMDM supplemented with 15% BIT (BSA, insulin, transferrin; StemCell Technologies), 100 ng/mL SCF, 50 ng/mL FLT3L, 20 ng/mL IL3, 20 ng/mL G-CSF, 10^−4 mol/L b-mercaptoethanol, gentamicin (50 μg/mL), ciprofloxacin (10 μg/mL), SR1 (500 nmol/L) and UM729 (500 nmol/L). Cells were plated in 384-well white plates, 5000 cells per well in 50 μL. Compounds were dissolved in DMSO, diluted in media immediately before use and added to seeded cells at the unique concentration of 1 μM. Control wells received DMSO (0.1%) only. Cell viability was evaluated after 6 days in culture using the CellTiterGlo assay according to the manufacturer’s instruction. Percentage of inhibition for dose response curves was calculated as 100 – (100 × (mean luminescence [compound]/mean luminescence [DMSO])). Dose response curves were generated using nonlinear regression in GraphPad Prism version.\nDose-response assays in primary AML specimens were performed as in chemical screen (see above) with the exception that compounds were tested in serial dilution (8 dilutions, 1:4, 10 μM down to 0.5 nM). Dose-response assays in OCI-AML5 cell line were conducted similarly with the following modifications: 300 cells per well were seeded in 50 μL of cell line media and cell viability was evaluated after 4 days in culture."}, "[4]": {"molecular_target": "T1, CDK1 (Homo sapiens, UniProt P06493)", "T1 construct": "purchased BPS Bioscience 79597", "T1 sequence (P06493 whole entry)": "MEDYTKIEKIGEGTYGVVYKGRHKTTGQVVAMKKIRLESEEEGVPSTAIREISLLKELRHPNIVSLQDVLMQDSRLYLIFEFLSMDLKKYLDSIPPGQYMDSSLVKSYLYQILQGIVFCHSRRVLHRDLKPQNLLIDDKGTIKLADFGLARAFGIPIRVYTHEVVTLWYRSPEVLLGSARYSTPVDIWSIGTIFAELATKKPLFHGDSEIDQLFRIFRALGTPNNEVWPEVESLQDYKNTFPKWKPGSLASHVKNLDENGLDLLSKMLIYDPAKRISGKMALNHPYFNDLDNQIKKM", "T1 sequence (P14635 whole entry partner)": "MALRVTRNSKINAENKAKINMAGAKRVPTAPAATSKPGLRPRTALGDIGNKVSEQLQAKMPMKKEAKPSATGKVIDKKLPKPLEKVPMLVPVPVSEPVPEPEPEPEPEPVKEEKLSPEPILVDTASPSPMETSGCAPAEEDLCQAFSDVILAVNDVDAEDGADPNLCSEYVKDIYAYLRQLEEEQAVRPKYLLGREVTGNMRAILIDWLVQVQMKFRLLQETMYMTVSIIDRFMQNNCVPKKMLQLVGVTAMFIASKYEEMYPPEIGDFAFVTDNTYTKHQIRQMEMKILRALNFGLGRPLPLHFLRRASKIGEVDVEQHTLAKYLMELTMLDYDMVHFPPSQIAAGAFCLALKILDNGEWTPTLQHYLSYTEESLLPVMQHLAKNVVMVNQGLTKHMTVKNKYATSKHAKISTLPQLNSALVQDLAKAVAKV", "assay": "CDK1 in vitro kinase activity, single concentration 1 μM", "format": "biochemical", "conditions": "single concentration 1 μM", "procedure": "(§1) Kinase activity was assessed using the kinase assay kits from BPS Bioscience for CDK1, CDK9 and CDK12 with Kinase Glo MAX in duplicates. Compounds were tested at a single concentration of 1 μM for CDK1 and CDK9 activity, and in a dilution ranging from 0.64 nM to 50 μM for CDK12 activity. Chemiluminescence was read using the Neo Synergy BioTek plate reader."}, "[5]": {"tested_on": "OCI-AML5 cells expressing shRNAs targeting CDK1, 2, 4, 7, 9, cyclin K", "assay": "Dose response in OCI-AML5 expressing shRNAs targeting CDK1, 2, 4, 7, 9, cyclin K or control", "format": "cell-based, H. sapiens"}, "[6]": {"tested_on": "cyclin KeGFP", "assay": "Cyclin KeGFP reporter system (eGFP/mCherry MFI by flow cytometry)", "format": "cell-based, H. sapiens", "in_short": "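Degradation read as eGFP-to-mCherry MFI ratio relative to DMSO controls, from flow cytometry of the selected G7 clone of OCI-AML5 cells transduced with the cyclin KeGFP reporter.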"}, "[7]": {"molecular_target": "T2, CDK9/CyclinT (Homo sapiens, UniProt P50750)", "T2 construct": "purchased BPS Bioscience 79628", "T2 sequence (P50750 whole entry)": "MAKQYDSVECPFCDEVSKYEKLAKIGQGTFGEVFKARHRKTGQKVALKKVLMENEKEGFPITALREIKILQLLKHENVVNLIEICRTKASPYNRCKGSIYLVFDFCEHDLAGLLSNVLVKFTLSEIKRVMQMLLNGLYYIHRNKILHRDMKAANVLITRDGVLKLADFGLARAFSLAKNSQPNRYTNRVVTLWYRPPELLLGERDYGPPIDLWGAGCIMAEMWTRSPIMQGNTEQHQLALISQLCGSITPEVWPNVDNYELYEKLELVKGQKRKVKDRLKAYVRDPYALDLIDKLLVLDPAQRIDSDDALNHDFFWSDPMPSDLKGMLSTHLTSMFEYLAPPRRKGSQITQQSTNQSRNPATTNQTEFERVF", "T2 sequence (O60563 whole entry partner)": "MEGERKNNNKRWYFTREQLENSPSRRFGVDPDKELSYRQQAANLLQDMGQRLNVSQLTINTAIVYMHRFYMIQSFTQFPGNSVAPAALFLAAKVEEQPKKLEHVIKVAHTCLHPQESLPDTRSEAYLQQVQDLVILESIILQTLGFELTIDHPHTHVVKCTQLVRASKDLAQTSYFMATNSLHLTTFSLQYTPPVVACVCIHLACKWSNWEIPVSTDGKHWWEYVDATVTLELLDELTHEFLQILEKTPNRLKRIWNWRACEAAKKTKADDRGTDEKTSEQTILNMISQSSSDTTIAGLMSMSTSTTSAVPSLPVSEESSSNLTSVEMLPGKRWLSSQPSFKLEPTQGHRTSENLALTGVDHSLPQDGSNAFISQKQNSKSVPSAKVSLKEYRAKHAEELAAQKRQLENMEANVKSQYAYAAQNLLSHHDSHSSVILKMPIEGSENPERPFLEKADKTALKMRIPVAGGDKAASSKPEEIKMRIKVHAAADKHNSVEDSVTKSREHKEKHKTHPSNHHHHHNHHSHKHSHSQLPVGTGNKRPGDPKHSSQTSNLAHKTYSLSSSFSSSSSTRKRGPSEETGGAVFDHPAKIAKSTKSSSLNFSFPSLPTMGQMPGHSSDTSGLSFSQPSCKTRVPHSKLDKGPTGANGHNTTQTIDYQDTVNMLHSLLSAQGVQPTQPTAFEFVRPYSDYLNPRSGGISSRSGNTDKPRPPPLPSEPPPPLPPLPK", "assay": "CDK9/CyclinT in vitro kinase activity, single concentration 1 μM", "format": "biochemical", "conditions": "single concentration 1 μM", "procedure": "as §1"}},
  "note": "Where “and” joins values, the source holds several entries; their conditions need not be identical. Equal values may be shown once. Read-outs that look alike come from different tables or passages of the source.",
  "data": [
    {"smiles": "CC(C)(C)c1cnc(CSc2cnc(NC(=O)C3CCNCC3)s2)o1", "note": "[SNS-032, N-[5-[[[5-(1,1-dimethylethyl)-2-oxazolyl]methyl]thio]-2-thiazolyl]-4-piperidinecarboxamide]", "values": [
      {"measurement": "potency upon CUL4A or CUL4B downregulation (for SNS-032, THZ531 also DDB1 depletion)", "setting": "[1]; OCI-AML5, 4 days", "value": "remained unaffected"},
      {"measurement": "Ratio shCUL4A/shCTRL", "setting": "[1]; ratio of IC50 in shCUL4A vs shCTRL OCI-AML5 cells", "value": 1.01},
      {"measurement": "IC50", "setting": "[2]", "value": 47, "unit": "nM"},
      {"measurement": "IC50", "setting": "[3]; primary AML specimen 03H109", "value": 97.3, "unit": "nM"},
      {"measurement": "IC50", "setting": "[3]; primary AML specimen 04H055", "value": 85.7, "unit": "nM"},
      {"measurement": "IC50", "setting": "[3]; primary AML specimen 04H096", "value": 118, "unit": "nM"},
      {"measurement": "IC50", "setting": "[3]; primary AML specimen 04H138", "value": 101, "unit": "nM"},
      {"measurement": "IC50", "setting": "[3]; primary AML specimen 05H113", "value": 153, "unit": "nM"},
      {"measurement": "IC50", "setting": "[3]; primary AML specimen 05H149", "value": 547, "unit": "nM"},
      {"measurement": "IC50", "setting": "[3]; primary AML specimen 05H193", "value": 164, "unit": "nM"},
      {"measurement": "IC50", "setting": "[3]; primary AML specimen 06H088", "value": 217, "unit": "nM"},
      {"measurement": "IC50", "setting": "[3]; primary AML specimen 06H117", "value": 134, "unit": "nM"},
      {"measurement": "IC50", "setting": "[3]; primary AML specimen 06H151", "value": 135, "unit": "nM"},
      {"measurement": "IC50", "setting": "[3]; primary AML specimen 07H003", "value": 94.5, "unit": "nM"},
      {"measurement": "IC50", "setting": "[3]; primary AML specimen 07H131", "value": 512, "unit": "nM"},
      {"measurement": "IC50", "setting": "[3]; primary AML specimen 07H144", "value": 165, "unit": "nM"},
      {"measurement": "IC50", "setting": "[3]; primary AML specimen 07H155", "value": 231, "unit": "nM"},
      {"measurement": "IC50", "setting": "[3]; primary AML specimen 08H018", "value": 618, "unit": "nM"},
      {"measurement": "IC50", "setting": "[3]; primary AML specimen 08H021", "value": 90.9, "unit": "nM"},
      {"measurement": "IC50", "setting": "[3]; primary AML specimen 08H056", "value": 79.4, "unit": "nM"},
      {"measurement": "IC50", "setting": "[3]; primary AML specimen 08H063", "value": 146, "unit": "nM"},
      {"measurement": "IC50", "setting": "[3]; primary AML specimen 08H085", "value": 309, "unit": "nM"},
      {"measurement": "IC50", "setting": "[3]; primary AML specimen 08H108", "value": 70.8, "unit": "nM"},
      {"measurement": "IC50", "setting": "[3]; primary AML specimen 08H118", "value": 291, "unit": "nM"},
      {"measurement": "IC50", "setting": "[3]; primary AML specimen 09H016", "value": 244, "unit": "nM"},
      {"measurement": "IC50", "setting": "[3]; primary AML specimen 09H070", "value": 123, "unit": "nM"},
      {"measurement": "IC50", "setting": "[3]; primary AML specimen 10H014", "value": 563, "unit": "nM"},
      {"measurement": "IC50", "setting": "[3]; primary AML specimen 10H046", "value": 306, "unit": "nM"},
      {"measurement": "IC50", "setting": "[3]; primary AML specimen 10H107", "value": 324, "unit": "nM"},
      {"measurement": "IC50", "setting": "[3]; primary AML specimen 10H127", "value": 71.5, "unit": "nM"},
      {"measurement": "IC50", "setting": "[3]; primary AML specimen 10H161", "value": 97.5, "unit": "nM"},
      {"measurement": "IC50", "setting": "[3]; primary AML specimen 10H174", "value": 211, "unit": "nM"},
      {"measurement": "IC50", "setting": "[3]; primary AML specimen 11H008", "value": 161, "unit": "nM"},
      {"measurement": "IC50", "setting": "[3]; primary AML specimen 11H019", "value": 214, "unit": "nM"},
      {"measurement": "IC50", "setting": "[3]; primary AML specimen 11H170", "value": 523, "unit": "nM"},
      {"measurement": "IC50", "setting": "[3]; primary AML specimen 11H217", "value": 74, "unit": "nM"},
      {"measurement": "IC50", "setting": "[3]; primary AML specimen 11H232", "value": 299, "unit": "nM"},
      {"measurement": "IC50", "setting": "[3]; primary AML specimen 12H033", "value": 280, "unit": "nM"},
      {"measurement": "IC50", "setting": "[3]; primary AML specimen 12H055", "value": 183, "unit": "nM"},
      {"measurement": "IC50", "setting": "[3]; primary AML specimen 12H148", "value": 208, "unit": "nM"},
      {"measurement": "IC50", "setting": "[3]; primary AML specimen 13H053", "value": 563, "unit": "nM"},
      {"measurement": "IC50", "setting": "[3]; primary AML specimen 15H045", "value": 256, "unit": "nM"},
      {"measurement": "IC50", "setting": "[3]; primary AML specimen 17H065", "value": 2500, "unit": "nM"},
      {"measurement": "inhibition at 1 µM", "setting": "[4]", "value": 77, "unit": "%"},
      {"measurement": "IC50", "setting": "[5]; Homo sapiens, OCI-AML-5, 96 h, OCI-AML5, 4 days, read-out: IC50, sh CDK1", "value": 23.3, "unit": "nM"},
      {"measurement": "IC50", "setting": "[5]; Homo sapiens, OCI-AML-5, 96 h, OCI-AML5, 4 days, read-out: IC50, sh ctrl", "value": 37.4, "unit": "nM"},
      {"measurement": "IC50", "setting": "[5]; Homo sapiens, OCI-AML-5, 96 h, read-out: IC50, sh CDK7", "value": 24.5, "unit": "nM"},
      {"measurement": "IC50", "setting": "[5]; OCI-AML5, 4 days, read-out: IC50, sh CDK1", "value": "46.6 nM and 42 nM"},
      {"measurement": "IC50", "setting": "[5]; OCI-AML5, 4 days, read-out: IC50, sh ctrl", "value": "47.4 nM and 50 nM"},
      {"measurement": "Class", "setting": "[5]; class from shRNA IC50 profile and cyclin K-eGFP degradation", "value": 2},
      {"measurement": "IC50", "setting": "[5]; read-out: IC50, sh CDK7", "value": 41, "unit": "nM"},
      {"measurement": "MFI of cyclin KeGFP over mCherry", "setting": "[6]; OCI-AML5 G7 clone, 3 h, 10 μM, normalized to DMSO (=100)", "value": "111.9 and 100.6 and 100.2 and 98.8 and 97.9"},
      {"measurement": "% degradation cyclin K-eGFP", "setting": "[6]; cyclin K-eGFP reporter", "value": 0, "unit": "%"},
      {"measurement": "inhibition at 1 µM", "setting": "[7]", "value": 63, "unit": "%"}
    ]}
  ]
}
